Literature values in patent US8062870B2, “Enantiomerically resolving acyloxyalkyl thiocarbonates used in synthesizing acyloxyalkyl carbamate prodrugs” (XenoPort, Inc., priority 2008, dated 2011).

Details: dosed either orally or directly into the colon of a mammal

Compound	bioavailability as pregabalin
CC(C)C[C@H](CNC(=O)OC(OC(=O)C(C)C)C(C)C)CC(=O)O (some centres unmarked)	high bioavailability
CC(C)C[C@H](CNC(=O)OC(C)OC(=O)c1ccccc1)CC(=O)O (some centres unmarked)	high bioavailability
